# From PubChem BioAssay (NCI)
#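 96-well plates; 48 h exposure; 5 concentrations. Endpoints by linear interpolation between flanking doses. Not reached: highest tested concentration assigned. GI50 is the concentration that inhibits growth by half. TGI is the concentration that stops growth completely.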
# Tested on: NCI-H23 lung
# Experiment: NCI-60 cell line screen, 48 h
SMILES,TGI,GI50
COc1cc(C2c3cc4c(cc3OC(N3CCCC3)C2C)OCO4)cc(OC)c1O (configuration not stated),> 82.1 µM,
COC(=O)C1=C(C)N(NC(=O)c2ccccc2)C(C)(O)C12CCOC2=O (configuration not stated),> 100 µM,
CCC[CH2][Ge]([CH2]CCC)([CH2]CCC)[O]C(=O)CC(=O)c1ccccc1,14.8 µM,0.28 µM
CCOC(CCNCC(OCC)OCC)OCC,> 10 µM,
CC1=CC(/C=C(\C)CCCc2ccoc2)C2(OC(=O)C(C)=C2O)[C@H]2C1CC[C@@H]2C (some centres not stated),67.2 µM,
O=C(O/N=C1/CCCC/C1=C\c1ccccc1)c1ccccc1,> 100 µM,

# Tested on: OVCAR-8 ovarian
# Experiment: NCI-60 cell line screen, 48 h
SMILES,TGI,GI50
COc1cc(C2c3cc4c(cc3OC(N3CCCC3)C2C)OCO4)cc(OC)c1O (configuration not stated),> 100 µM,
COC(=O)C1=C(C)N(NC(=O)c2ccccc2)C(C)(O)C12CCOC2=O (configuration not stated),> 100 µM,
CCC[CH2][Ge]([CH2]CCC)([CH2]CCC)[O]C(=O)CC(=O)c1ccccc1,18.3 µM,1.65 µM
CCOC(CCNCC(OCC)OCC)OCC,> 10 µM,
CC1=CC(/C=C(\C)CCCc2ccoc2)C2(OC(=O)C(C)=C2O)[C@H]2C1CC[C@@H]2C (some centres not stated),> 100 µM,
O=C(O/N=C1/CCCC/C1=C\c1ccccc1)c1ccccc1,> 100 µM,

# Tested on: M19-MEL melanoma
# Experiment: NCI-60 cell line screen, 48 h
SMILES,GI50,TGI
CCC[CH2][Ge]([CH2]CCC)([CH2]CCC)[O]C(=O)CC(=O)c1ccccc1,3.83 µM,19.3 µM
CC1=CC(/C=C(\C)CCCc2ccoc2)C2(OC(=O)C(C)=C2O)[C@H]2C1CC[C@@H]2C (some centres not stated),,90.6 µM
O=C(O/N=C1/CCCC/C1=C\c1ccccc1)c1ccccc1,,> 100 µM

# Tested on: IGROV1 ovarian
# Experiment: NCI-60 cell line screen, 48 h
SMILES,TGI,GI50
COc1cc(C2c3cc4c(cc3OC(N3CCCC3)C2C)OCO4)cc(OC)c1O (configuration not stated),> 100 µM,
COC(=O)C1=C(C)N(NC(=O)c2ccccc2)C(C)(O)C12CCOC2=O (configuration not stated),> 100 µM,
CCC[CH2][Ge]([CH2]CCC)([CH2]CCC)[O]C(=O)CC(=O)c1ccccc1,13.9 µM,2.2 µM
CCOC(CCNCC(OCC)OCC)OCC,> 10 µM,
CC1=CC(/C=C(\C)CCCc2ccoc2)C2(OC(=O)C(C)=C2O)[C@H]2C1CC[C@@H]2C (some centres not stated),> 100 µM,
O=C(O/N=C1/CCCC/C1=C\c1ccccc1)c1ccccc1,0.78 µM,

# Tested on: DMS 273 small cell lung
# Experiment: NCI-60 cell line screen, 48 h
SMILES,TGI,GI50
COC(=O)C1=C(C)N(NC(=O)c2ccccc2)C(C)(O)C12CCOC2=O (configuration not stated),> 100 µM,
CCC[CH2][Ge]([CH2]CCC)([CH2]CCC)[O]C(=O)CC(=O)c1ccccc1,13.4 µM,0.752 µM
O=C(O/N=C1/CCCC/C1=C\c1ccccc1)c1ccccc1,> 100 µM,

# Tested on: MCF7 breast
# Experiment: NCI-60 cell line screen, 48 h
row,SMILES,TGI
1,COc1cc(C2c3cc4c(cc3OC(N3CCCC3)C2C)OCO4)cc(OC)c1O (configuration not stated),> 100 µM
2,CCOC(CCNCC(OCC)OCC)OCC,> 10 µM

# Tested on: DLD-1 colon
# Experiment: NCI-60 cell line screen, 48 h
SMILES,TGI,GI50
COC(=O)C1=C(C)N(NC(=O)c2ccccc2)C(C)(O)C12CCOC2=O (configuration not stated),> 100 µM,
CCC[CH2][Ge]([CH2]CCC)([CH2]CCC)[O]C(=O)CC(=O)c1ccccc1,16 µM,0.77 µM
CC1=CC(/C=C(\C)CCCc2ccoc2)C2(OC(=O)C(C)=C2O)[C@H]2C1CC[C@@H]2C (some centres not stated),> 100 µM,
O=C(O/N=C1/CCCC/C1=C\c1ccccc1)c1ccccc1,> 100 µM,

# Tested on: SW-620 colon
# Experiment: NCI-60 cell line screen, 48 h
SMILES,TGI,GI50
COc1cc(C2c3cc4c(cc3OC(N3CCCC3)C2C)OCO4)cc(OC)c1O (configuration not stated),> 100 µM,
COC(=O)C1=C(C)N(NC(=O)c2ccccc2)C(C)(O)C12CCOC2=O (configuration not stated),> 100 µM,
CCC[CH2][Ge]([CH2]CCC)([CH2]CCC)[O]C(=O)CC(=O)c1ccccc1,12.6 µM,0.825 µM
CC1=CC(/C=C(\C)CCCc2ccoc2)C2(OC(=O)C(C)=C2O)[C@H]2C1CC[C@@H]2C (some centres not stated),> 100 µM,
O=C(O/N=C1/CCCC/C1=C\c1ccccc1)c1ccccc1,> 100 µM,

# Tested on: DU-145 prostate
# Experiment: NCI-60 cell line screen, 48 h
row,SMILES,TGI
1,COc1cc(C2c3cc4c(cc3OC(N3CCCC3)C2C)OCO4)cc(OC)c1O (configuration not stated),> 90 µM
2,CCOC(CCNCC(OCC)OCC)OCC,> 10 µM

# Tested on: EKVX NSCLC
# Experiment: NCI-60 cell line screen, 48 h
SMILES,TGI,GI50
COc1cc(C2c3cc4c(cc3OC(N3CCCC3)C2C)OCO4)cc(OC)c1O (configuration not stated),> 80.7 µM,
COC(=O)C1=C(C)N(NC(=O)c2ccccc2)C(C)(O)C12CCOC2=O (configuration not stated),> 100 µM,
CCC[CH2][Ge]([CH2]CCC)([CH2]CCC)[O]C(=O)CC(=O)c1ccccc1,16.2 µM,0.955 µM
CCOC(CCNCC(OCC)OCC)OCC,> 10 µM,
CC1=CC(/C=C(\C)CCCc2ccoc2)C2(OC(=O)C(C)=C2O)[C@H]2C1CC[C@@H]2C (some centres not stated),> 100 µM,
O=C(O/N=C1/CCCC/C1=C\c1ccccc1)c1ccccc1,> 100 µM,

# Tested on: HT29 colon
# Experiment: NCI-60 cell line screen, 48 h
SMILES,TGI,GI50
COc1cc(C2c3cc4c(cc3OC(N3CCCC3)C2C)OCO4)cc(OC)c1O (configuration not stated),> 87.7 µM,
COC(=O)C1=C(C)N(NC(=O)c2ccccc2)C(C)(O)C12CCOC2=O (configuration not stated),> 100 µM,
CCC[CH2][Ge]([CH2]CCC)([CH2]CCC)[O]C(=O)CC(=O)c1ccccc1,11.1 µM,0.64 µM
CCOC(CCNCC(OCC)OCC)OCC,> 10 µM,
CC1=CC(/C=C(\C)CCCc2ccoc2)C2(OC(=O)C(C)=C2O)[C@H]2C1CC[C@@H]2C (some centres not stated),> 100 µM,
O=C(O/N=C1/CCCC/C1=C\c1ccccc1)c1ccccc1,> 100 µM,

# Tested on: MDA-MB-231 breast
# Experiment: NCI-60 cell line screen, 48 h
row,SMILES,TGI
1,COc1cc(C2c3cc4c(cc3OC(N3CCCC3)C2C)OCO4)cc(OC)c1O (configuration not stated),> 93.3 µM
2,CCOC(CCNCC(OCC)OCC)OCC,> 10 µM

# Tested on: ACHN renal
# Experiment: NCI-60 cell line screen, 48 h
SMILES,TGI,GI50
COc1cc(C2c3cc4c(cc3OC(N3CCCC3)C2C)OCO4)cc(OC)c1O (configuration not stated),> 100 µM,
COC(=O)C1=C(C)N(NC(=O)c2ccccc2)C(C)(O)C12CCOC2=O (configuration not stated),> 100 µM,
CCC[CH2][Ge]([CH2]CCC)([CH2]CCC)[O]C(=O)CC(=O)c1ccccc1,16.8 µM,2.67 µM
CCOC(CCNCC(OCC)OCC)OCC,> 10 µM,
CC1=CC(/C=C(\C)CCCc2ccoc2)C2(OC(=O)C(C)=C2O)[C@H]2C1CC[C@@H]2C (some centres not stated),76.4 µM,
O=C(O/N=C1/CCCC/C1=C\c1ccccc1)c1ccccc1,> 100 µM,

# Tested on: NCI/ADR-RES ovarian
# Experiment: NCI-60 cell line screen, 48 h
row,SMILES,TGI
1,COc1cc(C2c3cc4c(cc3OC(N3CCCC3)C2C)OCO4)cc(OC)c1O (configuration not stated),37 µM
2,CCOC(CCNCC(OCC)OCC)OCC,> 10 µM

# Tested on: NCI-H522 lung
# Experiment: NCI-60 cell line screen, 48 h
SMILES,TGI,GI50
COc1cc(C2c3cc4c(cc3OC(N3CCCC3)C2C)OCO4)cc(OC)c1O (configuration not stated),19.1 µM,
COC(=O)C1=C(C)N(NC(=O)c2ccccc2)C(C)(O)C12CCOC2=O (configuration not stated),> 100 µM,
CCC[CH2][Ge]([CH2]CCC)([CH2]CCC)[O]C(=O)CC(=O)c1ccccc1,10.4 µM,0.261 µM
CCOC(CCNCC(OCC)OCC)OCC,> 10 µM,
CC1=CC(/C=C(\C)CCCc2ccoc2)C2(OC(=O)C(C)=C2O)[C@H]2C1CC[C@@H]2C (some centres not stated),31.2 µM,
O=C(O/N=C1/CCCC/C1=C\c1ccccc1)c1ccccc1,> 100 µM,

# Tested on: SK-MEL-5 melanoma
# Experiment: NCI-60 cell line screen, 48 h
row,SMILES,TGI
1,COc1cc(C2c3cc4c(cc3OC(N3CCCC3)C2C)OCO4)cc(OC)c1O (configuration not stated),40.5 µM
2,CCOC(CCNCC(OCC)OCC)OCC,> 10 µM
3,CC1=CC(/C=C(\C)CCCc2ccoc2)C2(OC(=O)C(C)=C2O)[C@H]2C1CC[C@@H]2C (some centres not stated),46.4 µM
4,O=C(O/N=C1/CCCC/C1=C\c1ccccc1)c1ccccc1,0.34 µM

# Tested on: A498 renal
# Experiment: NCI-60 cell line screen, 48 h
row,SMILES,TGI
1,COc1cc(C2c3cc4c(cc3OC(N3CCCC3)C2C)OCO4)cc(OC)c1O (configuration not stated),56.9 µM
2,COC(=O)C1=C(C)N(NC(=O)c2ccccc2)C(C)(O)C12CCOC2=O (configuration not stated),> 100 µM
3,CCOC(CCNCC(OCC)OCC)OCC,> 10 µM
4,CC1=CC(/C=C(\C)CCCc2ccoc2)C2(OC(=O)C(C)=C2O)[C@H]2C1CC[C@@H]2C (some centres not stated),49.2 µM
5,O=C(O/N=C1/CCCC/C1=C\c1ccccc1)c1ccccc1,0.514 µM

# Tested on: BT-549 breast
# Experiment: NCI-60 cell line screen, 48 h
row,SMILES,TGI
1,COc1cc(C2c3cc4c(cc3OC(N3CCCC3)C2C)OCO4)cc(OC)c1O (configuration not stated),53.2 µM
2,CCOC(CCNCC(OCC)OCC)OCC,> 10 µM

# Tested on: XF 498 CNS
# Experiment: NCI-60 cell line screen, 48 h
SMILES,TGI,GI50
COC(=O)C1=C(C)N(NC(=O)c2ccccc2)C(C)(O)C12CCOC2=O (configuration not stated),> 100 µM,
CCC[CH2][Ge]([CH2]CCC)([CH2]CCC)[O]C(=O)CC(=O)c1ccccc1,23.8 µM,11.6 µM
O=C(O/N=C1/CCCC/C1=C\c1ccccc1)c1ccccc1,> 100 µM,

# Tested on: NCI-H226 lung
# Experiment: NCI-60 cell line screen, 48 h
row,SMILES,TGI
1,COc1cc(C2c3cc4c(cc3OC(N3CCCC3)C2C)OCO4)cc(OC)c1O (configuration not stated),80.9 µM
